Assay results reported in patent publication US12698304B2, “Triterpene saponin variants, methods of synthesis and use thereof” (Memorial Sloan-Kettering Cancer Center, priority 2015, dated 2026).

Tested on: mice immunized with a four-antigen cocktail (MUC1-KLH, GD3-KLH, OVA)
Test: preclinical mouse vaccination model; antibody titers by ELISA
Format: in vivo
Settings: 5 μg and 20 μg dose of saponin variant (both doses); data not shown
Experimental: Panels a-c: anti-KLH (IgG) (Panel a), anti-OVA (IgG) (Panel b), and anti-MUC1 (IgG) (Panel c) antibody titers at 5 μg dose of each saponin variant. […] Median titer values represented as horizontal bars. Statistical significance compared to the no-adjuvant negative control assessed using unpaired Student's t-test with CI=95%: *p≤0.05, **p<0.01, ***p<0.001.
There is currently no in vitro method to measure adjuvant activity, due in part to the unknown and likely multivariate mechanisms of saponin adjuvant action. Thus, we proceeded directly to testing these QS variants in vivo in a mouse vaccination model. Cohorts of mice were immunized with the saponin variant of interest (5 or 20 μg) and a four-antigen cocktail comprising: (1) the immunogenic peptide MUC1 (prostate and breast cancer antigen, non-glycosylated tandem repeat) conjugated to a highly immunogenic carrier protein KLH (keyhole limpet hemocyanin; MUC1-KLH), (2) the poorly immunogenic ganglioside GD3 (melanoma, neuroblastoma, sarcoma antigen) conjugated to KLH (GD3-KLH), and (3) the immunogenic protein antigen ovalbumin (OVA). The antibody titers elicited against all […] antigens were evaluated by ELISA to compare the adjuvant activity of each QS analogue.

## C[C@H]1O[C@@H](OC2C(O)[C@@H](NC(=O)CCCCCCCCCCC(=O)O)C(CO)O[C@@H]2OC(=O)N[C@]23CCC(C)(C)CC2C2=CCC4C5(C)CC[C@H](O[C@@H]6OC(C(=O)O)[C@@H](O)[C@H](O[C@@H]7OC[C@@H](O)[C@H](O)C7O)C6O[C@@H]6OC(CO)[C@H](O)[C@H](O)C6O)[C@](C)(C=O)[C@@H]5CC[C@]4(C)[C@]2(C)CC3O)C(O)C(O)[C@H]1O[C@@H]1OC[C@@H](O)C(O)C1O (stereo partly drawn) [α-4]
  adjuvant activity (anti-KLH, anti-OVA, anti-MUC1 IgG antibody titers): inactive
